In patent publication EP0090603A2, “Antibacterial compounds” (BEECHAM GROUP PLC, priority 1982, dated 1983):

How the values were obtained:
M. bovis NCTC 10131 = test: microbe, parasite or virus in culture; assay type: cell-based; conditions: Friis broth solidified with 0.9% agarose, 10^3 to 10^5 C.F.U., 6 days at 37°C
Past. haemolytica PA5 = test: MIC against Veterinary Bacteria, in vitro agar dilution; conditions: […], 10^4 organisms, 18 hours at 37°C
Experimental: (§1) The activity of the compounds of the Examples against various veterinarily important bacteria, was assayed in vitro using two-fold serial dilutions in Diagnostic Sensitivity Test Agar inoculated with 10^4 organisms.

Strep. uberis SPU1 = test: as above; conditions: […], 10^4 organisms, 18 hours at 37°C
Experimental: as §1

M. suipneumoniae MS 16 = test: MIC against Mycoplasma, in vitro agar dilution; assay type: cell-based; conditions: Friis broth solidified with 0.9% agarose, 10^3 to 10^5 C.F.U., 6 days at 37°C
[1] = system: M. suipneumoniae PW/C/210; test: MIC against Mycoplasma, in vitro agar dilution; assay type: cell-based; conditions: Friis broth solidified with 0.9% agarose, 10^3 to 10^5 C.F.U., 6 days at 37°C
M. dispar NCTC 10125 = test: MIC against Mycoplasma, in vitro agar dilution; assay type: cell-based; conditions: Friis broth solidified with 0.9% agarose, 10^3 to 10^5 C.F.U., 6 days at 37°C
[2] = system: M. bovigenitalium ATCC 14173; test: MIC against Mycoplasma, in vitro agar dilution; assay type: cell-based; conditions: Friis broth solidified with 0.9% agarose, 10^3 to 10^5 C.F.U., 6 days at 37°C
S. typhimurium S18 = test: MIC against Veterinary Bacteria, in vitro agar dilution; conditions: […], 10^4 organisms, 18 hours at 37°C
Experimental: as §1

M. suipneumoniae UCD 1 = test: MIC against Mycoplasma, in vitro agar dilution; assay type: cell-based; conditions: Friis broth solidified with 0.9% agarose, 10^3 to 10^5 C.F.U., 6 days at 37°C
S. dublin S7 = test: MIC against Veterinary Bacteria, in vitro agar dilution; conditions: […], 10^4 organisms, 18 hours at 37°C
Experimental: as §1

M. suipneumoniae HK(2) = test: MIC against Mycoplasma, in vitro agar dilution; assay type: cell-based; conditions: Friis broth solidified with 0.9% agarose, 10^3 to 10^5 C.F.U., 6 days at 37°C
M. pneumoniae ATCC 15492 = test: MIC against Mycoplasma, in vitro agar dilution; assay type: cell-based; conditions: Friis broth solidified with 0.9% agarose, 10^3 to 10^5 C.F.U., 6 days at 37°C
M. hyorhinis ATCC 25021 = test: MIC against Mycoplasma, in vitro agar dilution; assay type: cell-based; conditions: Friis broth solidified with 0.9% agarose, 10^3 to 10^5 C.F.U., 6 days at 37°C
[3] = system: Corynebacterium pyogenes CY1; test: MIC against Veterinary Bacteria, in vitro agar dilution; conditions: 10^4 organisms, 18 hours at 37°C
Experimental: as §1

[4] = system: Strep. suis (group D) SPS11; test: as above; conditions: […], 10^4 organisms, 18 hours at 37°C
Experimental: as §1

Staph. aureus Oxford = test: as above; conditions: […], 10^4 organisms, 18 hours at 37°C
Experimental: as §1

M. hyorhinis ATCC 23234 = test: MIC against Mycoplasma, in vitro agar dilution; assay type: cell-based; conditions: Friis broth solidified with 0.9% agarose, 10^3 to 10^5 C.F.U., 6 days at 37°C
M. suipneumoniae JF 435 = test: MIC against Mycoplasma, in vitro agar dilution; assay type: cell-based; conditions: Friis broth solidified with 0.9% agarose, 10^3 to 10^5 C.F.U., 6 days at 37°C
Past. multocida PA2 = test: MIC against Veterinary Bacteria, in vitro agar dilution; conditions: […], 10^4 organisms, 18 hours at 37°C
Experimental: as §1

[5] = system: Staph. aureus 152 (pen. sens); test: as above; conditions: […], 10^4 organisms, 18 hours at 37°C
Experimental: as §1

[6] = system: M. suipneumoniae J2206/183^b; test: MIC against Mycoplasma, in vitro agar dilution; assay type: cell-based; conditions: Friis broth solidified with 0.9% agarose, 10^3 to 10^5 C.F.U., 6 days at 37°C
M. gallisepticum S6 = test: MIC against Mycoplasma, in vitro agar dilution; assay type: cell-based; conditions: Friis broth solidified with 0.9% agarose, 10^3 to 10^5 C.F.U., 6 days at 37°C
Strep. dysgalactiae SPD1 = test: MIC against Veterinary Bacteria, in vitro agar dilution; conditions: […], 10^4 organisms, 18 hours at 37°C
Experimental: as §1

Bord. bronchiseptica B08 = test: as above; conditions: […], 10^4 organisms, 18 hours at 37°C
Experimental: as §1

M. suipneumoniae Str. 11 = test: MIC against Mycoplasma, in vitro agar dilution; assay type: cell-based; conditions: Friis broth solidified with 0.9% agarose, 10^3 to 10^5 C.F.U., 6 days at 37°C
[7] = system: Staph. aureus B4 (pen. resistant); test: MIC against Veterinary Bacteria, in vitro agar dilution; conditions: […], 10^4 organisms, 18 hours at 37°C
Experimental: as §1

[8] = system: M. suipneumoniae NCTC 10110; test: MIC against Mycoplasma, in vitro agar dilution; assay type: cell-based; conditions: Friis broth solidified with 0.9% agarose, 10^3 to 10^5 C.F.U., 6 days at 37°C
E. coli E1 = test: MIC against Veterinary Bacteria, in vitro agar dilution; conditions: […], 10^4 organisms, 18 hours at 37°C
Experimental: as §1

[9] = system: M. hyosynoviae ATCC 25591; test: MIC against Mycoplasma, in vitro agar dilution; assay type: cell-based; conditions: Friis broth solidified with 0.9% agarose, 10^3 to 10^5 C.F.U., 6 days at 37°C
[10] = system: Erysipelothrix rhusiopathiae NCTC 8163; test: MIC against Veterinary Bacteria, in vitro agar dilution; conditions: […], 10^4 organisms, 18 hours at 37°C
Experimental: as §1

M. suipneumoniae NB12 = test: MIC against Mycoplasma, in vitro agar dilution; assay type: cell-based; conditions: Friis broth solidified with 0.9% agarose, 10^3 to 10^5 C.F.U., 6 days at 37°C
[11] = system: M. suipneumoniae ATCC 25095; test: MIC against Mycoplasma, in vitro agar dilution; assay type: cell-based; conditions: Friis broth solidified with 0.9% agarose, 10^3 to 10^5 C.F.U., 6 days at 37°C
Past. multocida PA1 = test: MIC against Veterinary Bacteria, in vitro agar dilution; conditions: […], 10^4 organisms, 18 hours at 37°C
Experimental: as §1

E. coli NCTC 10418 = test: as above; conditions: […], 10^4 organisms, 18 hours at 37°C
Experimental: as §1

Bord. bronchiseptica B09 = test: as above; conditions: […], 10^4 organisms, 18 hours at 37°C
Experimental: as §1

M. suipneumoniae LABER = test: MIC against Mycoplasma, in vitro agar dilution; assay type: cell-based; conditions: Friis broth solidified with 0.9% agarose, 10^3 to 10^5 C.F.U., 6 days at 37°C
M. suipneumoniae TAM 6N = test: MIC against Mycoplasma, in vitro agar dilution; assay type: cell-based; conditions: Friis broth solidified with 0.9% agarose, 10^3 to 10^5 C.F.U., 6 days at 37°C

## Methyl 9-[4-(5S-(2S,3S-epoxy-5S-hydroxy-4S-methylhexyl-3R,4R-dihydroxytetrahydropyran-2S-yl)-2,3-dimethylbut-2(E)-enoyloxy]nonanoate [Example 6]
M. bovis NCTC 10131
  MIC's against M. bovis NCTC 10131: 0.1 µg/mL
Past. haemolytica PA5
  MIC's against Past. haemolytica PA5: 80 µg/mL
Strep. uberis SPU1
  MIC's against Strep. uberis SPU1: 0.312 µg/mL
M. suipneumoniae MS 16
  MIC's against M. suipneumoniae MS 16: 2.5 µg/mL
[1]
  MIC's against M. suipneumoniae PW/C/210: 2.5 µg/mL
M. dispar NCTC 10125
  MIC's against M. dispar NCTC 10125: 2.5 µg/mL
[2]
  MIC's against M. bovigenitalium ATCC 14173: 0.25 µg/mL
S. typhimurium S18
  MIC's against S. typhimurium S18: >80 µg/mL
M. suipneumoniae UCD 1
  MIC's against M. suipneumoniae UCD 1: 10.0 µg/mL
S. dublin S7
  MIC's against S. dublin S7: >80 µg/mL
M. suipneumoniae HK(2)
  MIC's against M. suipneumoniae HK(2): 10.0 µg/mL
M. pneumoniae ATCC 15492
  MIC's against M. pneumoniae ATCC 15492: 10.0 µg/mL
M. hyorhinis ATCC 25021
  MIC's against M. hyorhinis ATCC 25021: 1.0 µg/mL
[3]
  MIC's against Corynebacterium pyogenes CY1: >80 µg/mL
[4]
  MIC's against Strep. suis (group D) SPS11: 10 µg/mL
Staph. aureus Oxford
  MIC's against Staph. aureus Oxford: 0.625 µg/mL
M. hyorhinis ATCC 23234
  MIC's against M. hyorhinis ATCC 23234: 1.0 µg/mL
M. suipneumoniae JF 435
  MIC's against M. suipneumoniae JF 435: 5.0 µg/mL
Past. multocida PA2
  MIC's against Past. multocida PA2: 5.0 µg/mL
[5]
  MIC's against Staph. aureus 152 (pen. sens): 2.5 µg/mL
[6]
  MIC's against M. suipneumoniae J2206/183^b: 10.0 µg/mL
M. gallisepticum S6
  MIC's against M. gallisepticum S6: >10.0 µg/mL
Strep. dysgalactiae SPD1
  MIC's against Strep. dysgalactiae SPD1: 0.625 µg/mL
Bord. bronchiseptica B08
  MIC's against Bord. bronchiseptica B08: 40 µg/mL
M. suipneumoniae Str. 11
  MIC's against M. suipneumoniae Str. 11: 2.5 µg/mL
[7]
  MIC's against Staph. aureus B4 (pen. resistant): 1.25 µg/mL
[8]
  MIC's against M. suipneumoniae NCTC 10110: 10.0 µg/mL
E. coli E1
  MIC's against E. coli E1: >80 µg/mL
[9]
  MIC's against M. hyosynoviae ATCC 25591: 1.0 µg/mL
[10]
  MIC's against Erysipelothrix rhusiopathiae NCTC 8163: >80 µg/mL
M. suipneumoniae NB12
  MIC's against M. suipneumoniae NB12: 2.5 µg/mL
[11]
  MIC's against M. suipneumoniae ATCC 25095: 2.5 µg/mL
Past. multocida PA1
  MIC's against Past. multocida PA1: 5.0 µg/mL
E. coli NCTC 10418
  MIC's against E. coli NCTC 10418: >80 µg/mL
Bord. bronchiseptica B09
  MIC's against Bord. bronchiseptica B09: 5.0 µg/mL
M. suipneumoniae LABER
  MIC's against M. suipneumoniae LABER: 2.5 µg/mL
M. suipneumoniae TAM 6N
  MIC's against M. suipneumoniae TAM 6N: 10.0 µg/mL
